Experimental data reported in the CheMixHub viscosity set.

Test: xn = mol fraction of the nth substance listed

CC12CC3CC(C)(C1)CC(C)(C3)C2 + CCCCCCCCCCC
viscosity [mPa·s], 100 kPa
Details	x1 = 0.1004	x1 = 0.1998	x1 = 0.3004	x1 = 0.4006	x1 = 0.4992	x1 = 0.6045	x1 = 0.7008	x1 = 0.8138	x1 = 0.9014
293.15 K	1.267	1.341	1.419	1.514	1.628	1.772	1.935	2.161	2.369
298.15 K	1.16	1.227	1.294	1.374	1.47	1.595	1.737	1.939	2.134
303.15 K	1.071	1.121	1.187	1.264	1.351	1.463	1.589	1.762	1.926
308.15 K	0.987	1.038	1.095	1.165	1.246	1.348	1.46	1.612	1.76
313.15 K	0.92	0.965	1.019	1.083	1.152	1.241	1.34	1.475	1.605
318.15 K	0.86	0.9	0.948	1.006	1.073	1.155	1.245	1.369	1.48
323.15 K	0.802	0.843	0.889	0.943	1.001	1.073	1.153	1.261	1.362

CCCCCCCCCCCCCC + CCCCCCCCCCCCCCCC
293.15 K, 101.33 kPa
Details	viscosity [mPa·s]
x1 = 0.276	3.067
x1 = 0.533	2.789
x1 = 0.773	2.529

CC(=O)OC1CCCCC1 + CCCCCCCCCCO
viscosity [mPa·s], 101 kPa
Details	300 K	310 K	320 K
x2 = 0.0746	2.01	1.65	1.38
x2 = 0.1275	2.11	1.72	1.43
x2 = 0.184	2.26	1.82	1.51
x2 = 0.2015	2.3	1.86	1.55
x2 = 0.2425	2.42	1.95	1.6
x2 = 0.2741	2.54	2.03	1.66
x2 = 0.4169	3.15	2.47	1.98
x2 = 0.4886	3.61	2.81	2.23
x2 = 0.6055	4.41	3.35	2.62
x2 = 0.6993	5.27	3.95	3.04
x2 = 0.8435	7.56	5.49	4.1
x2 = 0.8806	8.17	5.85	4.37
